# Where two headings read alike, the source gives them in different places.
# How the values were obtained:
# Pseudomonas aeruginosa = assay: MIC, microbroth dilution; type: cell-based
# Escherichia coli = assay: microbe, parasite or virus in culture; type: cell-based
# [1] = Aqueous solubility (nephelometric); type: physicochemical; conditions: aqueous solution (buffer not named); single replicates
# [2] = Liver microsome stability, murine; type: in vitro ADME, mouse
# Method in brief: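 Compounds incubated with liver microsomes plus NADPH over 30 min; parent remaining quantified by reverse-phase LC/MS. Half-life from linear regression over several time points.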
# Neisseria gonorrhoeae = assay: MIC, microbroth dilution, G77L medium; type: cell-based
compound,measurement,setting,value
"O=C(Nc1nnc(-c2ccc(F)cc2)o1)c1ccc(Cl)cc1 [KKL-35, 4-chloro-N-(5-(4-fluorophenyl)-1,3,4-oxadiazol-2-yl)benzamide]",MIC,"Pseudomonas aeruginosa; Pseudomonas aeruginosa ATCC 27853, replicates",≥32 µg/mL
same,MIC,"Pseudomonas aeruginosa; Pseudomonas aeruginosa, ATCC27853, Pseudomonas aeruginosa ATCC 27853, replicates, read-out: MIC",≥ 32 µg/mL
same,MIC,"Pseudomonas aeruginosa; Pseudomonas aeruginosa, ATCC27853, strain ATCC 27853, read-out: MIC",> 32 µg/mL
same,MIC,"Escherichia coli; Escherichia coli KLE700, replicates",≥32 µg/mL
same,MIC,"Escherichia coli; Escherichia coli KLE701 (ΔtolC), replicates",0.50 µg/mL
same,MIC,"Escherichia coli; Escherichia coli, E. coli KLE701 (ΔtolC::tet), source data, individual replicates",0.496 µg/mL
same,MIC,"Escherichia coli; Escherichia coli, Escherichia coli KLE700, replicates, read-out: MIC",≥ 32 µg/mL
same,MIC,"Escherichia coli; Escherichia coli, Escherichia coli KLE701 (ΔtolC), replicates",0.5 µg/mL
same,MIC,"Escherichia coli; Escherichia coli, strain KLE700, read-out: MIC",≥ 32 µg/mL
same,MIC,"Escherichia coli; Escherichia coli, strain KLE701, KLE700 ΔtolC::tet",0.5 µg/mL
same,Solubility,[1],6.3 µM
same,liver microsome stability (in words),[2],rapidly hydrolyzed
same,half-life,"[2]; mouse, murine liver microsomes, read-out: MMS / Microsomal Stability (t1/2), murine",< 5 min
same,Average MLMS t½,"[2]; murine liver microsomes, average of replicates",<5 min
same,MLMS t½,"[2]; murine liver microsomes, individual replicates",<5 min
same,MIC,"Neisseria gonorrhoeae; Neisseria gonorrhoeae, ATCC49226, Neisseria gonorrhoeae ATCC 49226, source data, individual replicates, read-out: MIC",0.124 µg/mL
same,MIC,"Neisseria gonorrhoeae; Neisseria gonorrhoeae, ATCC49226, strain ATCC 49226, geomean of replicates, read-out: MIC GEOMEAN",0.124 µg/mL
same,MIC,"Neisseria gonorrhoeae; Neisseria gonorrhoeae, ATCC49226, strain ATCC 49226, replicates 1-3, read-out: MIC",0.124 µg/mL
same,MIC,"Neisseria gonorrhoeae; Neisseria gonorrhoeae, ATCC49226, strain ATCC 49226, type strain, read-out: MIC",0.12 µg/mL
same,MIC,"Neisseria gonorrhoeae; Neisseria gonorrhoeae, ATCC49226, strain MMX ATCC 49226, broth dilution by Micromyx, read-out: MIC",0.25 µg/mL
same,MIC,"Neisseria gonorrhoeae; Neisseria gonorrhoeae, ATCC49226, strain MMX ATCC 49226, single data point, Micromyx, read-out: MIC",0.25 µg/mL
same,MIC,"Neisseria gonorrhoeae; Neisseria gonorrhoeae, ATCC700719, strain ATCC 700719, SPT, read-out: MIC",0.25 µg/mL
same,MIC,"Neisseria gonorrhoeae; Neisseria gonorrhoeae, ATCC700719, strain ATCC 700719, geomean of replicates, read-out: MIC GEOMEAN",0.248 µg/mL
same,MIC,"Neisseria gonorrhoeae; Neisseria gonorrhoeae, ATCC700719, strain ATCC 700719, replicates 1-3, read-out: MIC",0.248 µg/mL
same,MIC,"Neisseria gonorrhoeae; Neisseria gonorrhoeae, ATCC700825, strain ATCC 700825, STR, read-out: MIC",0.06 µg/mL
same,MIC,"Neisseria gonorrhoeae; Neisseria gonorrhoeae, ATCC700825, strain ATCC 700825, geomean of replicates, read-out: MIC GEOMEAN",0.062 µg/mL
same,MIC,"Neisseria gonorrhoeae; Neisseria gonorrhoeae, ATCC700825, strain ATCC 700825, replicates 1-3, read-out: MIC",0.062 µg/mL
same,MIC,"Neisseria gonorrhoeae; Neisseria gonorrhoeae, BAA1846, strain BAA-1846, TET, read-out: MIC",0.06 µg/mL
same,MIC,"Neisseria gonorrhoeae; Neisseria gonorrhoeae, BAA1846, strain BAA-1846, geomean of replicates, read-out: MIC GEOMEAN",0.062 µg/mL
same,MIC,"Neisseria gonorrhoeae; Neisseria gonorrhoeae, BAA1846, strain BAA-1846, replicates 1-3, read-out: MIC",0.062 µg/mL
same,MIC,"Neisseria gonorrhoeae; Neisseria gonorrhoeae, strain H041, Fig. 1B, read-out: N. gonorrhoeae H041 MIC",0.12 µg/mL
same,MIC,"Neisseria gonorrhoeae; Neisseria gonorrhoeae, strain HO41, PEN, TET, CFM, CRO, LVX, read-out: MIC",0.25 µg/mL
same,MIC,"Neisseria gonorrhoeae; Neisseria gonorrhoeae, strain HO41, geomean of replicates, read-out: MIC GEOMEAN",0.248 µg/mL
same,MIC,"Neisseria gonorrhoeae; Neisseria gonorrhoeae, strain HO41, replicates 1-3, read-out: MIC",0.248 µg/mL
same,MIC,"Neisseria gonorrhoeae; Neisseria gonorrhoeae, strain MMX 6744, broth dilution by Micromyx, read-out: MIC",0.13 µg/mL
same,MIC,"Neisseria gonorrhoeae; Neisseria gonorrhoeae, strain MMX 6744, single data point, Micromyx, read-out: MIC",0.13 µg/mL
same,MIC,"Neisseria gonorrhoeae; Neisseria gonorrhoeae, strain MMX 6746, CIP, by Micromyx, read-out: MIC",0.13 µg/mL
same,MIC,"Neisseria gonorrhoeae; Neisseria gonorrhoeae, strain MMX 6746, single data point, Micromyx, read-out: MIC",0.13 µg/mL
same,MIC,"Neisseria gonorrhoeae; Neisseria gonorrhoeae, strain MMX 6752, TET, by Micromyx, read-out: MIC",0.25 µg/mL
same,MIC,"Neisseria gonorrhoeae; Neisseria gonorrhoeae, strain MMX 6752, single data point, Micromyx, read-out: MIC",0.25 µg/mL
same,MIC,"Neisseria gonorrhoeae; Neisseria gonorrhoeae, strain MMX 6753, by Micromyx, read-out: MIC",0.06 µg/mL
same,MIC,"Neisseria gonorrhoeae; Neisseria gonorrhoeae, strain MMX 6753, single data point, Micromyx, read-out: MIC",0.06 µg/mL
same,MIC,"Neisseria gonorrhoeae; Neisseria gonorrhoeae, strain MMX 6757, by Micromyx, read-out: MIC",0.06 µg/mL
same,MIC,"Neisseria gonorrhoeae; Neisseria gonorrhoeae, strain MMX 6757, single data point, Micromyx, read-out: MIC",0.06 µg/mL
same,MIC,"Neisseria gonorrhoeae; Neisseria gonorrhoeae, strain MMX 6758, by Micromyx, read-out: MIC",0.13 µg/mL
same,MIC,"Neisseria gonorrhoeae; Neisseria gonorrhoeae, strain MMX 6758, single data point, Micromyx, read-out: MIC",0.13 µg/mL
same,MIC,"Neisseria gonorrhoeae; Neisseria gonorrhoeae, strain MMX 6762, by Micromyx, read-out: MIC",0.13 µg/mL
same,MIC,"Neisseria gonorrhoeae; Neisseria gonorrhoeae, strain MMX 6762, single data point, Micromyx, read-out: MIC",0.13 µg/mL
same,MIC,"Neisseria gonorrhoeae; Neisseria gonorrhoeae, strain MMX 6767, by Micromyx, read-out: MIC",0.06 µg/mL
same,MIC,"Neisseria gonorrhoeae; Neisseria gonorrhoeae, strain MMX 6767, single data point, Micromyx, read-out: MIC",0.06 µg/mL
same,MIC,"Neisseria gonorrhoeae; Neisseria gonorrhoeae, strain MMX 6771, TET, by Micromyx, read-out: MIC",0.06 µg/mL
same,MIC,"Neisseria gonorrhoeae; Neisseria gonorrhoeae, strain MMX 6771, single data point, Micromyx, read-out: MIC",0.06 µg/mL
same,MIC,"Neisseria gonorrhoeae; Neisseria gonorrhoeae, strain MMX 6793, CIP, by Micromyx, read-out: MIC",0.06 µg/mL
same,MIC,"Neisseria gonorrhoeae; Neisseria gonorrhoeae, strain MMX 6793, single data point, Micromyx, read-out: MIC",0.06 µg/mL
same,MIC,"Neisseria gonorrhoeae; Neisseria gonorrhoeae, strain MMX 6797, CIP, TET, by Micromyx, read-out: MIC",0.06 µg/mL
same,MIC,"Neisseria gonorrhoeae; Neisseria gonorrhoeae, strain MMX 6797, single data point, Micromyx, read-out: MIC",0.06 µg/mL
same,MIC,"Neisseria gonorrhoeae; Neisseria gonorrhoeae, strain MMX 6803, CIP, by Micromyx, read-out: MIC",0.13 µg/mL
same,MIC,"Neisseria gonorrhoeae; Neisseria gonorrhoeae, strain MMX 6803, single data point, Micromyx, read-out: MIC",0.13 µg/mL
same,MIC,"Neisseria gonorrhoeae; Neisseria gonorrhoeae, strain MMX 6812, CIP, by Micromyx, read-out: MIC",0.13 µg/mL
same,MIC,"Neisseria gonorrhoeae; Neisseria gonorrhoeae, strain MMX 6812, single data point, Micromyx, read-out: MIC",0.13 µg/mL
same,MIC,"Neisseria gonorrhoeae; Neisseria gonorrhoeae, strain MMX 6818, CIP, by Micromyx, read-out: MIC",0.13 µg/mL
same,MIC,"Neisseria gonorrhoeae; Neisseria gonorrhoeae, strain MMX 6818, single data point, Micromyx, read-out: MIC",0.13 µg/mL
same,MIC,"Neisseria gonorrhoeae; Neisseria gonorrhoeae, strain MMX 6819, CIP, by Micromyx, read-out: MIC",0.13 µg/mL
same,MIC,"Neisseria gonorrhoeae; Neisseria gonorrhoeae, strain MMX 6819, single data point, Micromyx, read-out: MIC",0.13 µg/mL
same,MIC,"Neisseria gonorrhoeae; Neisseria gonorrhoeae, strain MMX 6879, by Micromyx, read-out: MIC",0.06 µg/mL
same,MIC,"Neisseria gonorrhoeae; Neisseria gonorrhoeae, strain MMX 6879, single data point, Micromyx, read-out: MIC",0.06 µg/mL
same,MIC,"Neisseria gonorrhoeae; Neisseria gonorrhoeae, strain MMX 6921, CIP, by Micromyx, read-out: MIC",0.25 µg/mL
same,MIC,"Neisseria gonorrhoeae; Neisseria gonorrhoeae, strain MMX 6921, single data point, Micromyx, read-out: MIC",0.25 µg/mL
same,MIC,"Neisseria gonorrhoeae; Neisseria gonorrhoeae, strain MMX 6922, CIP, by Micromyx, read-out: MIC",0.25 µg/mL
same,MIC,"Neisseria gonorrhoeae; Neisseria gonorrhoeae, strain MMX 6922, single data point, Micromyx, read-out: MIC",0.25 µg/mL
same,MIC,"Neisseria gonorrhoeae; Neisseria gonorrhoeae, strain MMX 6983, CIP, by Micromyx, read-out: MIC",0.25 µg/mL
same,MIC,"Neisseria gonorrhoeae; Neisseria gonorrhoeae, strain MMX 6983, single data point, Micromyx, read-out: MIC",0.25 µg/mL
same,MIC,"Neisseria gonorrhoeae; Neisseria gonorrhoeae, strain MMX 6989, by Micromyx, read-out: MIC",0.13 µg/mL
same,MIC,"Neisseria gonorrhoeae; Neisseria gonorrhoeae, strain MMX 6989, single data point, Micromyx, read-out: MIC",0.13 µg/mL
same,MIC,"Neisseria gonorrhoeae; Neisseria gonorrhoeae, strain MMX 6990, CIP, by Micromyx, read-out: MIC",0.06 µg/mL
same,MIC,"Neisseria gonorrhoeae; Neisseria gonorrhoeae, strain MMX 6990, single data point, Micromyx, read-out: MIC",0.06 µg/mL
same,MIC,"Neisseria gonorrhoeae; Neisseria gonorrhoeae, strain MMX 6992, by Micromyx, read-out: MIC",0.13 µg/mL
same,MIC,"Neisseria gonorrhoeae; Neisseria gonorrhoeae, strain MMX 6992, single data point, Micromyx, read-out: MIC",0.13 µg/mL
same,MIC,"Neisseria gonorrhoeae; Neisseria gonorrhoeae, strain MMX 6996, by Micromyx, read-out: MIC",0.13 µg/mL
same,MIC,"Neisseria gonorrhoeae; Neisseria gonorrhoeae, strain MMX 6996, single data point, Micromyx, read-out: MIC",0.13 µg/mL
same,MIC,"Neisseria gonorrhoeae; Neisseria gonorrhoeae, strain MMX 6998, CIP, by Micromyx, read-out: MIC",0.25 µg/mL
same,MIC,"Neisseria gonorrhoeae; Neisseria gonorrhoeae, strain MMX 6998, single data point, Micromyx, read-out: MIC",0.25 µg/mL
same,MIC,"Neisseria gonorrhoeae; Neisseria gonorrhoeae, strain MMX 7002, CIP, by Micromyx, read-out: MIC",0.13 µg/mL
same,MIC,"Neisseria gonorrhoeae; Neisseria gonorrhoeae, strain MMX 7002, single data point, Micromyx, read-out: MIC",0.13 µg/mL
same,MIC,"Neisseria gonorrhoeae; Neisseria gonorrhoeae, strain MMX 7005, by Micromyx, read-out: MIC",0.03 µg/mL
same,MIC,"Neisseria gonorrhoeae; Neisseria gonorrhoeae, strain MMX 7005, single data point, Micromyx, read-out: MIC",0.03 µg/mL
same,MIC90,"Neisseria gonorrhoeae; Neisseria gonorrhoeae, Supplementary Table 3, n = 32 (KKL-35), 71 (MBX-4132) strains, read-out: MIC90 (n)",0.25 µg/mL
same,MIC,"Neisseria gonorrhoeae; strain ATCC 49226, replicates 1-3",0.124 µg/mL
same,MIC,"Neisseria gonorrhoeae; strain ATCC 700719, replicates 1-3",0.248 µg/mL
same,MIC,"Neisseria gonorrhoeae; strain ATCC 700825, replicates 1-3",0.062 µg/mL
same,MIC,"Neisseria gonorrhoeae; strain BAA-1846, replicates 1-3",0.062 µg/mL
same,MIC,"Neisseria gonorrhoeae; strain HO41, replicates 1-3",0.248 µg/mL

# Source: publication PMC7979765, “trans-Translation inhibitors bind to a novel site on the ribosome and clear Neisseria gonorrhoeae in vivo” (Nature Communications, 2021)
